Tests used:
HLA-B*08 = assay: MHC binding assay (UV-ligand exchange, β2m ELISA); parameters: species or system human
CD8+ T cells = assay: In vitro T-cell priming assay with aAPCs (in vitro immunogenicity for MHC class I presented peptides); format: cell-based, human; settings: in vitro immunogenicity
HLA-A*03 = HLA-A*03 (Homo sapiens, UniProt P04439); assay: MHC binding assay (UV-ligand exchange, β2m ELISA)
HLA-A*02 = HLA-A*02 (Homo sapiens, UniProt P04439, D140Y/D185E/D98H/E176V/E277Q/G131W/G231S/I119V/I121R/I166T/I218V/N151K/N90K/P208A/P217A/Q86G/Q94H/R138H/R169H); assay: MHC binding assay (UV-ligand exchange, β2m ELISA)

Peptide exchange (peptide exchange yield, MHC class I binding score) (HLA-B*08) | Peptide exchange (peptide exchange yield, MHC class I binding score) (HLA-A*03) | Substance | Wells positive [%] (CD8+ T cells; HLA B*08) | also measured
“++++” (>75% = ++++) |  | 296 (MPMQDIKM; listed as Homo sapiens) [compound 296] |  | 
“++++” (>75% = ++++) |  | 306 (ILKVKVGL; listed as Homo sapiens) [compound 306] | “+” (<20% = +) | 
“++++” (>75% = ++++) |  | 310 (LPPKKFVL; listed as Homo sapiens) [compound 310] |  | 
 | “++++” (>75% = ++++) | 207 (RSFNGLLTMY; listed as Homo sapiens) [compound 207] |  | 
 | “+++” (>50 = +++) | 216 (KLYAWELAF; listed as Homo sapiens) [compound 216] |  | 
“+++” (>50 = +++) |  | 300 (VASPKHCVL; listed as Homo sapiens) [compound 300] | “+” (<20% = +) | 
 | “++++” (>75% = ++++) | 205 (SLDGAARPK; listed as Homo sapiens) [compound 205] |  | Wells positive [%] (CD8+ T cells; HLA A*03): “++” (20%-49% = ++)
 | “++++” (>75% = ++++) | 457 (SINKPTSER; listed as Homo sapiens) [compound 457] |  | 
“++++” (>75% = ++++) |  | 303 (LPFPKFTV; listed as Homo sapiens) [compound 303] | “++” (20%-49% = ++) | 
 | “++++” (>75% = ++++) | 455 (RIADIFVKK; listed as Homo sapiens) [compound 455] |  | 
 | “++++” (>75% = ++++) | 458 (GIADFVLKY; listed as Homo sapiens) [compound 458] |  | 
 | “++++” (>75% = ++++) | 209 (RTQIPMSEK; listed as Homo sapiens) [compound 209] |  | Wells positive [%] (CD8+ T cells; HLA A*03): “+” (<20% = +)
 | “++++” (>75% = ++++) | 208 (GLASRILDAK; listed as Homo sapiens) [compound 208] |  | Wells positive [%] (CD8+ T cells; HLA A*03): “+” (<20% = +)
 | “++++” (>75% = ++++) | 453 (AINTSIKNK; listed as Homo sapiens) [compound 453] |  | 
“++++” (>75% = ++++) |  | 299 (MAQFKEISL; listed as Homo sapiens) [compound 299] | “++++” (>=70% = ++++) | 
“++++” (>75% = ++++) |  | 308 (MLKQKVEEL; listed as Homo sapiens) [compound 308] | “+” (<20% = +) | 
 | “++++” (>75% = ++++) | 215 (MMFSGPQILKL; listed as Homo sapiens) [compound 215] |  | 
“++++” (>75% = ++++) |  | 301 (YMHKLLVL; listed as Homo sapiens) [compound 301] |  | 
 | “++++” (>75% = ++++) | 211 (TVNPVAIHK; listed as Homo sapiens) [compound 211] |  | 
 | “++++” (>75% = ++++) | 204 (AVFDKFIRY; listed as Homo sapiens) [compound 204] |  | 
“++++” (>75% = ++++) |  | 305 (ALKLRVAVL; listed as Homo sapiens) [compound 305] | “+” (<20% = +) | 
 | “+++” (>50 = +++) | 218 (KTLVAELLILK; listed as Homo sapiens) [compound 218] |  | Wells positive [%] (CD8+ T cells; HLA A*03): “+” (<20% = +)
“++++” (>75% = ++++) |  | 317 (LVKVKVLL; listed as Homo sapiens) [compound 317] |  | 
 | “++++” (>75% = ++++) | 210 (ATSGVPVYK; listed as Homo sapiens) [compound 210] |  | Wells positive [%] (CD8+ T cells; HLA A*03): “++++” (>=70% = ++++)
 |  | 88 (VQMVITEAQKV; listed as Homo sapiens) [compound 88] |  | Peptide exchange (peptide exchange yield, MHC class I binding score) (HLA-A*02): “++++” (>75% = ++++); Wells positive [%] (CD8+ T cells; HLA A*02): “++” (20%-49% = ++)
“++++” (>75% = ++++) |  | 318 (EAAIRSVEL; listed as Homo sapiens) [compound 318] | “++” (20%-49% = ++) | 

Peptide exchange (peptide exchange yield, MHC class I binding score) (HLA-B*08) | Peptide exchange (peptide exchange yield, MHC class I binding score) (HLA-A*03) | Substance | Wells positive [%] (CD8+ T cells; HLA B*08) | also measured
“++++” (>75% = ++++) |  | 297 (RAQLKLVAL; listed as Homo sapiens) [compound 297] | “+” (<20% = +) | 
 |  | 393 (ILLPYLQTL; listed as Homo sapiens) [compound 393] |  | Peptide exchange (peptide exchange yield, MHC class I binding score) (HLA-A*02): “++++” (>75% = ++++); Wells positive [%] (CD8+ T cells; HLA A*02): “+” (<20% = +)
 |  | 93 (TLQEKILQV; listed as Homo sapiens) [compound 93] |  | Peptide exchange (peptide exchange yield, MHC class I binding score) (HLA-A*02): “++++” (>75% = ++++); Wells positive [%] (CD8+ T cells; HLA A*02): “+” (<20% = +)
“++++” (>75% = ++++) |  | 304 (ELKKLYCQI; listed as Homo sapiens) [compound 304] |  | 
 |  | 94 (VLPDIETLIGV; listed as Homo sapiens) [compound 94] |  | Peptide exchange (peptide exchange yield, MHC class I binding score) (HLA-A*02): “++++” (>75% = ++++); Wells positive [%] (CD8+ T cells; HLA A*02): “+++” (50%-69% = +++)
“++++” (>75% = ++++) |  | 314 (AIISRLVAL; listed as Homo sapiens) [compound 314] | “++” (20%-49% = ++) | 
 |  | 130 (NLWGGQGLLGV; listed as Homo sapiens) [compound 130] |  | Peptide exchange (peptide exchange yield, MHC class I binding score) (HLA-A*02): “++++” (>75% = ++++); Wells positive [%] (CD8+ T cells; HLA A*02): “+” (<20% = +)
“++++” (>75% = ++++) |  | 315 (DIYQRALNL; listed as Homo sapiens) [compound 315] | “+” (<20% = +) | 
“+++” (>50 = +++) |  | 316 (VIKEKALTL; listed as Homo sapiens) [compound 316] | “+” (<20% = +) | 
 |  | 133 (MTLPVDAVISV; listed as Homo sapiens) [compound 133] |  | Peptide exchange (peptide exchange yield, MHC class I binding score) (HLA-A*02): “++++” (>75% = ++++); Wells positive [%] (CD8+ T cells; HLA A*02): “+” (<20% = +)
“++++” (>75% = ++++) |  | 312 (EAMLRNKEL; listed as Homo sapiens) [compound 312] | “+” (<20% = +) | 
“+++” (>50 = +++) |  | 302 (HLLQKQTSI; listed as Homo sapiens) [compound 302] |  | 
“++++” (>75% = ++++) |  | 307 (ILLPRTVSL; listed as Homo sapiens) [compound 307] | “+” (<20% = +) | 
 | “++++” (>75% = ++++) | 214 (RTMSEAALVRK; listed as Homo sapiens) [compound 214] |  | Wells positive [%] (CD8+ T cells; HLA A*03): “+” (<20% = +)
 | “++++” (>75% = ++++) | 203 (KVKDTPGLGK; listed as Homo sapiens) [compound 203] |  | 
“++++” (>75% = ++++) |  | 311 (EIRIRVVQM; listed as Homo sapiens) [compound 311] | “+” (<20% = +) | 
“+++” (>50 = +++) |  | 309 (DAIQRKYSC; listed as Homo sapiens) [compound 309] |  | 
 | “++++” (>75% = ++++) | 456 (SMFTAILKK; listed as Homo sapiens) [compound 456] |  | 
 | “++++” (>75% = ++++) | 217 (RILNQILYY; listed as Homo sapiens) [compound 217] |  | 
“+++” (>50 = +++) |  | 298 (FNKRKPLSL; listed as Homo sapiens) [compound 298] | “+” (<20% = +) | 
“++++” (>75% = ++++) |  | 313 (ELKKKEYEEL; listed as Homo sapiens) [compound 313] | “+” (<20% = +) | 
 | “++++” (>75% = ++++) | 219 (RLRSSLVFK; listed as Homo sapiens) [compound 219] |  | 
 | “++++” (>75% = ++++) | 454 (KVYTPSISK; listed as Homo sapiens) [compound 454] |  | 
 | “++++” (>75% = ++++) | 212 (KAYEQVMHY; listed as Homo sapiens) [compound 212] |  | 
 | “++++” (>75% = ++++) | 206 (KLIDLSQVMY; listed as Homo sapiens) [compound 206] |  | 
 | “++++” (>75% = ++++) | 202 (KLAELEGALQK; listed as Homo sapiens) [compound 202] |  | 
